We go through three compounds from US20050244964A1, “Production of neural progenitor cells” (priority 2002, published 2005).

One test deals with Human ES cells. Put plainly: TH+ cell immunostaining of adhered human ES cell embryoid bodies. It is filed as cell-based. To be noted: for formation of TH+ cells (in words): human ES embryoid bodies adhered and differentiated. The procedure: Collagenase/trypsin passaged ES cells were prepared as a single cell suspension and seeded at a density of 150 cells/μl in low attachment TC dishes (Costar). Cell aggregates were split 1:3 at day 2 and possibly at day 3 if required. Cultures were feed daily for 9 days and on day 9 bodies were transferred to poly-L-ornithine/laminin coated 24 well trays in 0.5 ml of medium if adhesive culture was to be conducted. Another 0.5 ml media was added to each well after 24 hours incubation. Adhered cultures or suspension cultures were fed daily for a further 8 days.
Embryoid bodies or neurospheres/aggregates are allowed to settle onto a coated surface to allow differentiation to occur (4 to 8 days). The coating can be on a plastic surface in either a tray or a coated coverslip.
The ability of basic media with supplements (DMEM +N2 or ITSS) to promote neural differentiation of hES cells was compared with medium that included F12: (DMEM:F12 (1:1) +N2 or ITSS)
Trypsinised Human ES cells were seeded at approximately 10 to 20 cells/μl of media into 10 ml of neurosphere media (DMEM:F12, 10 μg/ml heparin (SIGMA), 1/50 B27(GIBCO), 1/100 pen/strep, 1/100 ITSS) in a T75 culture flask. 10 ng/ml FGF2 was optionally added but the culture medium was preferably mitogen-free (no FGF2). Cultures were maintained in the media for 9 days after which the embryoid bodies were optionally transferred to poly-L-ornithine/laminin plates and cultured in the same media for a further 6 days. The embryoid bodies so formed (EB^15) whether from adherent or suspension culture, were then triturated to near single cell form and used for either transplantation or for the formation of neurospheres/cell reaggregates.
Example 5 was repeated utilising human ES cells and a minimal media consisting of DMEM and 100 μM L-proline as outlined in the schematic of FIG. 12. Results were similar to those described in Example 5.

The next test concerns mouse ES cells. In words: Neural versus non-neural differentiation and neural complexity scoring of mouse ES cell embryoid bodies. It is filed as cell-based. To be noted: RA doses 1 μM and 10 nM compared with 100 nM. The source says:
FIG. 2A is a graph that illustrates the level of neural differentiation when retinoic acid and MEDII are and are not present. The first column (ICb−RA) used a standard media (ICb, see Example 2), where a high percentage of non-neural tissue (scored as beating muscle) was observed. […] The third column used a 50% MEDII conditioned media but without RA supplementation. […] The fourth column used 50% MEDII supplemented with RA.
FIG. 2B is similar to FIG. 2A except the level of neural complexity was scored. A score of 1 to 3 was assigned depending upon the neuronal complexity (number of neurites and networking emanating from the body), with a score of 3 for the most complex.
Single cell suspensions of mouse ES cells were cultured for 4 days in standard culture media (ICb) or in the presence of 50% MEDII. The standard conditioning media (ICb) contains 90 ml DMEM, 10 ml of foetal calf serum, 1 ml glutamine (0.1M stock at 1/100 dilution) and 100 ul of β-Mercaptoethanol (0.1M stock at 1/1000 dilution). The culture process involved media changes on days 2 and 4 involving a ½ splitting of the cell aggregates. […] This media change occurred every day for three days (i.e to EBM^7). By the end of this period the morphological differences in treatment when supplemented with combinations of 50% MEDII and/or RA were apparent. […]

Regarding `O=C(O)[C@@H]1CCCN1` [L-proline], in the test with Human ES cells, the “formation of TH+ cells (in words)” value is recorded as “high numbers of TH+cells”. For the same compound, in the test with Human ES cells (human ES embryoid bodies, 9 days suspension then adherent culture on laminin, with N2 or ITSS, L-proline 100 μM in DMEM), the “proportion of TH+ cells” value is on record as about 50%.

With FGF2: fibroblast growth factor, the “formation of TH+ cells (in words)” value in the test with Human ES cells was “little impact on the generation of TH+ cells”.

Regarding `CC1=C(/C=C/C(C)=C/C=C/C(C)=C/C(=O)O)C(C)(C)CCC1` [RA, (all-E)-3,7-dimethyl-9-(2,6,6-trimethyl-1-cyclohexen-1-yl)-2,4,6,8-nonatetraenoic acid], the “uniformity of RA effect on embryoid bodies” value with mouse ES cells was “not as uniform as seen with 100 nM RA”.
